This is an account of results in patent publication US10300155B2, “Alpha-synuclein ligands” (Washington University, priority 2015, dated 2019).

In one test the target is Aβ fibrils (Homo sapiens, UniProt P05067). Put plainly: ThT competitive assay for Aβ fibrils (Table 2). The test is classed as binding. Set-up: made in house; host or cells: E. coli. As to conditions: for EC50: Aβ fibrils. The procedure: […] recombinant protein was produced in E. coli. Additional preparation was performed in a similar fashion to Example 115. […] The inhibitor that binds with highest affinity to Aβ fibrils has the lowest dissociation constant (Ki).
Sequence of Aβ fibrils (P05067 672-713 limits assumed): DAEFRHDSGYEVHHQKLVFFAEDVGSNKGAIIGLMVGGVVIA

Test [1] concerns the target T1, α-synuclein fibrils (Homo sapiens, UniProt P37840).
T1 construct: made in house; host or cells: E. coli BL21(DE3)RIL
Put plainly: ThT competitive assay for α-synuclein fibrils (Table 1). The note with it: for EC50: α-synuclein fibrils. The test is classed as binding. The procedure:
Upon binding to amyloid fibrils, a peak at approximately 440 nm becomes dominant with the fluorescent emission maximum shifted to 480 nm. This is accompanied by a strong enhancement of the fluorescence.
α-Synuclein recombinant protein was produced in E. coli. […] Freshly transformed BL21 colonies were inoculated into 2 L baffled flasks containing 250 mL sterilized TB (1.2% bactotryptone, 2.4% yeast extract, 0.4% glycerol, 0.17 M KH2PO4, 0.72 M K2HPO4) with 50 μg/ml ampicillin, and incubated overnight at 37° C. with shaking.
To determine the concentration of fibrils, the reaction mixture (100 μL) was centrifuged at 18,000×g for 10 minutes to separate fibrils from monomer. The α-synuclein monomer and other soluble proteins in the supernatant were removed, and the fibril pellet was resuspended in 100 μL solution of Tris-HCl (20 mM) and NaCl (100 mM). This fibril suspension was used in a bicinchoninic acid (BCA) protein assay along with a bovine serum albumin (BSA) standard curve to determine the concentration of fibrils in the 72 hour fibril reaction mixture.
To prepare the fibrils for performing binding assays, the fibril reaction mixture prepared above was centrifuged at 18,000×g for 10 minutes.
Once the ThT-α-synuclein saturation binding curve and dissociation constant (Kd) were determined the competitive assay for determining the binding affinity of various test compounds was conducted. […] The mixture was incubated at room temperature for 60 minutes on the shaking plate. The fluorescent intensity for each cell was measured by the fluorescence reader at λex and λem. The Ki value for each compound was calculated by the corresponding inhibition curve.
The Ki values were derived from the EC50 values using the Cheng-Prusoff equation: Ki=EC50/(1+[radioligand]/Kd). See FIGS. 17.1-31.2 for the inhibition curves for each compound in the ThioT competitive binding assay.

The next test has as its target tau fibrils (Homo sapiens, UniProt P10636). Put plainly: ThT competitive assay for tau fibrils (Table 3). Format: binding. Set-up: made in house; host or cells: E. coli. The note with it: for EC50: tau fibrils. The procedure: Tau fibril recombinant protein was produced in E. coli. Additional preparation was performed in a similar fashion to Example 115.
The next test concerns the target AD Tissue. Put plainly: Radioligand saturation binding, AD postmortem brain tissue. On the set-up: species or system human. As to conditions: brain tissue homogenate.
The target of test [2] is T1, α-synuclein fibrils. Put plainly: Radioligand binding assay with α-synuclein fibrils (Table 8).
The target in test [3] is T1, α-synuclein fibrils. Put plainly: Thioflavin T competition assay (Example 130, Table 9), α-synuclein fibrils. Format: binding. The procedure:
Freshly transformed BL21 colonies were inoculated into 2 L baffled flasks containing 250 ml sterilized TB (1.2% bactotryptone, 2.4% yeast extract, 0.4% glycerol, 0.17 M KH2PO4, 0.72 M K2HPO4) with 50 μg/ml ampicillin, and incubated overnight at 37° C. with shaking.
Competition assays used a fixed concentration of α-syn, Aβ, or tau fibrils (1 μM), consisting of 3 μM, 50 nM and 4 μM of ThioflavinT respectively. […] To optimize the determination of selectivity, assays for all three fibril species were set up in parallel using a common set of intermediate compound dilutions for each analog. Reactions were incubated at room temperature for 1.5 h before quantifying bound ligand as described above for the saturation binding assay. […] All data points were performed in triplicate. Nonspecific fluorescence was measured in parallel reactions containing ThioT plus each concentration of competitor but no fibrils, and these measurements were subtracted from the reactions with fibrils to yield fibril-specific fluorescence. Data were analyzed using Graphpad. Prism software (version 4.0) to obtain EC50 values by fitting the data to the equation Y=bottom+(top-bottom)/(1+10^(x−log EC50)).

The mark [4] stands for this setting: average, read-out: EC50(nM) EC50 (avg).
Setting [5] is: individual determinations, read-out: EC50(nM) EC50.
Where [6] appears, read: average, read-out: Ki (nM) Aβ (avg).
Where [7] appears, read: individual determinations, read-out: Ki (nM) Aβ.
Where [8] appears, read: average, read-out: Ki (nM) α-syn (avg).
Setting [9] is: individual determinations, read-out: Ki (nM) α-syn.
Setting [10] is: average, read-out: EC50 (nM) EC50 (avg).
The mark [11] stands for this setting: individual determinations, read-out: EC50 (nM) EC50.
The mark [12] stands for this setting: average, read-out: Ki (nM) Tau (avg).
[13] abbreviates: individual determinations, read-out: Ki (nM) Tau.
The mark [14] stands for this setting: average, read-out: EC50m (nM) EC50 (avg).
The mark [15] stands for this setting: individual determinations, read-out: EC50m (nM) EC50.
The mark [16] stands for this setting: average, read-out: α-synuclein EC50 (avg).
The mark [17] stands for this setting: average, read-out: α-synuclein Ki (avg).
[18] abbreviates: individual determinations, read-out: α-synuclein EC50.
The mark [19] stands for this setting: individual determinations, read-out: α-synuclein Ki.

Several values for one entry are separate records, joined by “and”; a condition that tells them apart may be missing. Identical values can stand only once. Like-named read-outs stand apart in the source and are kept apart here.

Sequence of tau fibrils (P10636 560-692 limits assumed): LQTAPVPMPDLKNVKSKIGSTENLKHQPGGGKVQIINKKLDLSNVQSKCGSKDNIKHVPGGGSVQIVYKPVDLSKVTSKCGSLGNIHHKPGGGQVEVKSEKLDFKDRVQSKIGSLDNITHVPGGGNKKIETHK

Broadly, the EC50 is the concentration needed to bring the measured effect to its halfway point. One may read the Ki as a dissociation constant, usually derived from enzyme kinetics or from competition with a known ligand. Consider `COc1ccc(/C=C/c2ccco2)cc1` [TZ-34-24], for which the EC50 on Aβ fibrils (setting [4]) is 2280 nM; on Aβ fibrils (setting [5]), 2560 nM and 2000 nM; at α-synuclein fibrils [1] (setting [10]), 902 nM; on α-synuclein fibrils [1] (setting [11]), 1590 nM and 426 nM and 686 nM. For the same molecule, the Ki was 888 nM on Aβ fibrils (setting [6]); 961 nM and 815 nM on Aβ fibrils (setting [7]); 345 nM at α-synuclein fibrils [1] (setting [8]); 610 nM and 163 nM and 262 nM at α-synuclein fibrils [1] (setting [9]).

In the case of `COc1ccc(/C=C/c2cccs2)cc1` [TZ-34-26], the half-maximal effective concentration (EC50) on Aβ fibrils (setting [4]) is 6660 nM; at Aβ fibrils (setting [5]), 6660 nM; on tau fibrils (setting [14]), 3350 nM; at tau fibrils (setting [15]) it was 3350 nM; at α-synuclein fibrils [1] (setting [10]) it was 460 nM; at α-synuclein fibrils [1] (setting [11]), 134 nM and 739 nM and 329 nM and 762 nM and 214 nM and 580 nM. Also, the Ki on Aβ fibrils (setting [6]) was 2500 nM; at Aβ fibrils (setting [7]) it was 2500 nM; on tau fibrils (setting [12]), 1370 nM; at tau fibrils (setting [13]), 1370 nM; on α-synuclein fibrils [1] (setting [8]) it was 176 nM; on α-synuclein fibrils [1] (setting [9]), 51.3 nM and 283 nM and 126 nM and 291 nM and 82 nM and 221 nM.

For the molecule `COc1ccc(/C=C/c2ccsc2)cc1` [TZ-34-28], the Ki was 876 nM on tau fibrils (setting [12]); 600 nM and 1150 nM on tau fibrils (setting [13]); 172 nM at α-synuclein fibrils [1] (setting [8]); 43.1 nM and 167 nM and 113 nM and 104 nM and 256 nM and 347 nM at α-synuclein fibrils [1] (setting [9]). Further, the EC50 on tau fibrils (setting [14]) is 2150 nM; on tau fibrils (setting [15]) it was 1470 nM and 2830 nM; on α-synuclein fibrils [1] (setting [10]), 449 nM; at α-synuclein fibrils [1] (setting [11]), 113 nM and 437 nM and 297 nM and 271 nM and 670 nM and 907 nM.

`COc1ccc(/C=C/c2ccc(-c3cnc(C)s3)s2)cc1` [TZ-34-43]: the EC50 on Aβ fibrils (setting [4]) is 854 nM; on Aβ fibrils (setting [5]) it was 854 nM; at tau fibrils (setting [14]) it was 1260 nM; on tau fibrils (setting [15]) it was 1260 nM; on α-synuclein fibrils [1] (setting [10]), 351 nM. Besides, the inhibition constant (Ki) at Aβ fibrils (setting [6]) was found to be 320 nM; on Aβ fibrils (setting [7]), 320 nM; on tau fibrils (setting [12]) it was 512 nM; on tau fibrils (setting [13]), 512 nM; at α-synuclein fibrils [1] (setting [8]), 134 nM.

The term Kd denotes the free concentration of one partner at which half of the binding sites on the other are occupied at equilibrium, for simple one-to-one binding. Lower therefore signals higher affinity. For `COc1ccc2nc(/C=C/c3ccnc(OC)c3)ccc2c1` [TZ-36-28-2T], the Kd amounted to 13 nM at AD Tissue and 30 nM at α-synuclein fibrils [2]. The concentration giving a half-maximal response (EC50) on Aβ fibrils (setting [4]) is 715 nM; on Aβ fibrils (setting [5]) it was 715 nM; on tau fibrils (setting [14]), 82 nM; at tau fibrils (setting [15]), 82 nM; at α-synuclein fibrils [1] (setting [10]), 136 nM; at α-synuclein fibrils [1] (setting [11]), 98 nM and 105 nM and 226 nM and 174 nM and 76 nM. Moreover, the inhibitory constant (Ki) at Aβ fibrils (setting [6]) was 268 nM; at Aβ fibrils (setting [7]), 268 nM; on tau fibrils (setting [12]), 34 nM; at α-synuclein fibrils [1] (setting [8]) it was 51.8 nM; at α-synuclein fibrils [1] (setting [9]) it was 37 nM and 40 nM and 87 nM and 66 nM and 29 nM.

`COc1ccc2nc(/C=C/c3ccnc(Br)c3)ccc2c1` [TZ-36-36]: the EC50 is 396 nM on α-synuclein fibrils [3] (setting [16]); 335 nM and 457 nM at α-synuclein fibrils [3] (setting [18]); 396 nM on α-synuclein fibrils [1] (setting [10]); 335 nM and 457 nM on α-synuclein fibrils [1] (setting [11]). The inhibitory constant (Ki) was 152 nM on α-synuclein fibrils [3] (setting [17]); 128 nM and 175 nM at α-synuclein fibrils [3] (setting [19]); 152 nM at α-synuclein fibrils [1] (setting [8]); 128 nM and 175 nM at α-synuclein fibrils [1] (setting [9]).

Turning to `COc1ccc2nc(/C=C/c3ccoc3)ccc2c1` [TZ-36-54], the EC50 at α-synuclein fibrils [3] (setting [16]) is 178 nM; on α-synuclein fibrils [3] (setting [18]) it was 169 nM and 188 nM; on α-synuclein fibrils [1] (setting [10]), 178 nM; on α-synuclein fibrils [1] (setting [11]) it was 169 nM and 188 nM. Also, the inhibition constant (Ki) at α-synuclein fibrils [3] (setting [17]) was 68.5 nM; on α-synuclein fibrils [3] (setting [19]), 65 nM and 72 nM; at α-synuclein fibrils [1] (setting [8]), 68.5 nM; on α-synuclein fibrils [1] (setting [9]), 65 nM and 72 nM.

Turning to `COc1cc(/C=C/c2ccc3cc(OC(C)C)ccc3n2)ccn1` [TZ-36-138], the EC50 on α-synuclein fibrils [3] (setting [16]), at α-synuclein fibrils [3] (setting [18]), on α-synuclein fibrils [1] (setting [10]) and at α-synuclein fibrils [1] (setting [11]) was 128 nM in each case. Besides, the inhibition constant Ki at α-synuclein fibrils [3] (setting [17]), on α-synuclein fibrils [3] (setting [19]), at α-synuclein fibrils [1] (setting [8]) and at α-synuclein fibrils [1] (setting [9]) was 49 nM each time.

As for `COc1ccc2nc(C#Cc3ccnc(OC)c3)ccc2c1` [TZ-36-142], the concentration giving a half-maximal response (EC50) at α-synuclein fibrils [3] (setting [16]), at α-synuclein fibrils [3] (setting [18]), on α-synuclein fibrils [1] (setting [10]) and at α-synuclein fibrils [1] (setting [11]) was 609 nM each time. In addition, the inhibition constant (Ki) at α-synuclein fibrils [3] (setting [17]), on α-synuclein fibrils [3] (setting [19]), on α-synuclein fibrils [1] (setting [8]) and at α-synuclein fibrils [1] (setting [9]) was 233 nM in each case.

With `COCOc1ccc2nc(/C=C/c3ccnc(OC)c3)ccc2c1` [TZ-36-144], the EC50 on α-synuclein fibrils [3] (setting [16]), at α-synuclein fibrils [3] (setting [18]), at α-synuclein fibrils [1] (setting [10]) and on α-synuclein fibrils [1] (setting [11]) was 110 nM each time. In addition, the inhibition constant (Ki) on α-synuclein fibrils [3] (setting [17]), at α-synuclein fibrils [3] (setting [19]), at α-synuclein fibrils [1] (setting [8]) and at α-synuclein fibrils [1] (setting [9]) was 42 nM throughout.

Regarding `COc1cc(/C=C/c2ccc3cc(O)ccc3n2)ccn1` [TZ-36-146], the EC50 is 332 nM on α-synuclein fibrils [3] (setting [16]); 278 nM at tau fibrils (setting [14]); 305 nM and 251 nM at tau fibrils (setting [15]); 332 nM on α-synuclein fibrils [1] (setting [10]). Besides, the inhibition constant (Ki) is 127 nM on α-synuclein fibrils [3] (setting [17]); 113 nM at tau fibrils (setting [12]); 124 nM and 102 nM on tau fibrils (setting [13]); 127 nM at α-synuclein fibrils [1] (setting [8]).
